Experimental data published in US20250177363A1, “SUBSTITUTED IMIDAZOPYRIDINYL COMPOUNDS USEFUL AS INHIBITORS OF TLR9” (Bristol-Myers Squibb Company, priority 2022, published 2025).

Columns and labels:
Format in all cases: cell-based
human TLR9 = target: T1, human TLR9 (Homo sapiens, UniProt Q9NR96); test: TLR9 inhibition reporter assay (HEK-Blue, SEAP); conditions: HEK-Blue cells overexpressing human TLR9, ligand ODN2006 200 nM, 22 hour incubation
T1 construct: host or cells: HEK-Blue cells
T1 sequence (Q9NR96 26-1032): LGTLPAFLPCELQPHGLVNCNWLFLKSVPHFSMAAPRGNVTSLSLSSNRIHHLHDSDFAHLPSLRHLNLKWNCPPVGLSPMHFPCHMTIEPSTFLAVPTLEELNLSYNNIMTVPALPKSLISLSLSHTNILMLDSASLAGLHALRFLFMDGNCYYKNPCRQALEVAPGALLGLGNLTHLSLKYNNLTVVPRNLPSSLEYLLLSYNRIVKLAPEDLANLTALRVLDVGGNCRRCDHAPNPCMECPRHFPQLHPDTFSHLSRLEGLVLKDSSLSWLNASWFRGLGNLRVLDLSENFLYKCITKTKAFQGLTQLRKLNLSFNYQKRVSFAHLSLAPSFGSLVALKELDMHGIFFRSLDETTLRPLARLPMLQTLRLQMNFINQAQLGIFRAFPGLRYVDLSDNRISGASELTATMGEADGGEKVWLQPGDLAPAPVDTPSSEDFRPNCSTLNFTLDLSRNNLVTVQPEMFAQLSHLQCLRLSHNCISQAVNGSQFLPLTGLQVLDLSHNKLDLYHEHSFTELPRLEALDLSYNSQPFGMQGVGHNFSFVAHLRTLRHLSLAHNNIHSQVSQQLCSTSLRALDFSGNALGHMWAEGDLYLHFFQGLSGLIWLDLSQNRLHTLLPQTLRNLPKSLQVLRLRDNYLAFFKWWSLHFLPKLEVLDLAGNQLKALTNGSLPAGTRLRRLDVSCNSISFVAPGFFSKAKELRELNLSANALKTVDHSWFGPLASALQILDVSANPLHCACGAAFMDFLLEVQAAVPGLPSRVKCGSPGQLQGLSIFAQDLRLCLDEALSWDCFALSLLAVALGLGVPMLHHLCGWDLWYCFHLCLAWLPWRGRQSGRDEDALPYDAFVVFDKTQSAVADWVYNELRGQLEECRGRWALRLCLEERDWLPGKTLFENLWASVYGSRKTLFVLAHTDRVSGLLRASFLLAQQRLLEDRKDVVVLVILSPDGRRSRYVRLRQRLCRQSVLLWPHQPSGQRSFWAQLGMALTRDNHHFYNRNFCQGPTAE
Experimental: (§1) TLR7/8/9 Inhibition Reporter Assays
(§2) HEK-Blue™-cells (Invivogen) overexpressing human TLR7. TLR8 or TLR9 receptors were used for screening inhibitors of these receptors using an inducible SEAP (secreted embryonic alkaline phosphatase) reporter gene under the control of the IFN-β minimal promoter fused to five NF-κB and AP-1-binding sites. Cells are seeded into Greiner 384 well plates (15000 cells per well) that are pre dispensed (by ECHO) with testing compounds in DMSO to yield a final dose response concentration range of 0.85 nM-50 μM. After a 60 minute compound pre-treatment in 37 degree incubator, the cells are then stimulated with a TLR7 ligand (gardiquimod at a final concentration of 2.5 μM), TLR8 ligand (R848 at a final concentration of 14.25 μM) or TLR9 ligand (ODN2006 at a final concentration of 200 nM) to activate NF-κB and AP-1 which induce the production of SEAP. After a 22 hour incubation at 37° C., 5% CO2, SEAP levels are determined with the addition of HEK-Blue™ Detection reagent (Invivogen), a cell culture medium that allows for detection of SEAP, according to manufacturer's specifications. The percent inhibition is determined as the % reduction in the HEK-Blue signal present in […].

human TLR7 = target: T2, human TLR7 (Homo sapiens, UniProt Q9NYK1); test: TLR7 inhibition reporter assay (HEK-Blue, SEAP); conditions: HEK-Blue cells overexpressing human TLR7, ligand gardiquimod 2.5 μM, 22 hour incubation
T2 construct: host or cells: HEK-Blue cells
T2 sequence (Q9NYK1 27-1049): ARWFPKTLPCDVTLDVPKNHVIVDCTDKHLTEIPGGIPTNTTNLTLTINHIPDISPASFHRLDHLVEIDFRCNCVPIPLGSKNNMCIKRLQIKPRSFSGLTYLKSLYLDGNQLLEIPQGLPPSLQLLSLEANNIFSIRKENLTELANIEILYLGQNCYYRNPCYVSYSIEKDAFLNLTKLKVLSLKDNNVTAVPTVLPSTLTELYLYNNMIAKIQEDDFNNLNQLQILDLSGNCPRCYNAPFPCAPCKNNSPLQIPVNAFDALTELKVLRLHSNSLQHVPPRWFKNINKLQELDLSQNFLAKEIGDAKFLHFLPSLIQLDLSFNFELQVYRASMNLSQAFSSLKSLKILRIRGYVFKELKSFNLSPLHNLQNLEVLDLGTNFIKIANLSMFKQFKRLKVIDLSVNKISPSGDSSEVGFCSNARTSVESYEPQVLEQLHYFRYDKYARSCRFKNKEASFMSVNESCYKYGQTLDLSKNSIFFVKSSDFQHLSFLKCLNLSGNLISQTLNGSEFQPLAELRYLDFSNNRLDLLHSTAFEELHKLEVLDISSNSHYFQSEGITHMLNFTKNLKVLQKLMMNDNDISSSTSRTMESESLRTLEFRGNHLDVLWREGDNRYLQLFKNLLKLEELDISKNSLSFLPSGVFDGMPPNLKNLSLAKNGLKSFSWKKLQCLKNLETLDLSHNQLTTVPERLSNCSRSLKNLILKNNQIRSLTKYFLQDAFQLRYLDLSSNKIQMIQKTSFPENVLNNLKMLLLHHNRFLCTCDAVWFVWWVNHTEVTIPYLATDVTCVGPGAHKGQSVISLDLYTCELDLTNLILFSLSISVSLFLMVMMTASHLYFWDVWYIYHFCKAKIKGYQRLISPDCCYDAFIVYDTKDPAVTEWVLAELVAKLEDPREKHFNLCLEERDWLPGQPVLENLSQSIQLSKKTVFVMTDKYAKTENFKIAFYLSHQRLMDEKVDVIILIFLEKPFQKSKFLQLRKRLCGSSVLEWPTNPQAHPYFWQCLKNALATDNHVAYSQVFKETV
Experimental: as §1, §2

human TLR8 = target: T3, human TLR8 (Homo sapiens, UniProt Q9NR97); test: TLR8 inhibition reporter assay (HEK-Blue, SEAP); conditions: HEK-Blue cells overexpressing human TLR8, ligand R848 14.25 μM, 22 hour incubation
T3 construct: host or cells: HEK-Blue cells
T3 sequence (Q9NR97 27-1041): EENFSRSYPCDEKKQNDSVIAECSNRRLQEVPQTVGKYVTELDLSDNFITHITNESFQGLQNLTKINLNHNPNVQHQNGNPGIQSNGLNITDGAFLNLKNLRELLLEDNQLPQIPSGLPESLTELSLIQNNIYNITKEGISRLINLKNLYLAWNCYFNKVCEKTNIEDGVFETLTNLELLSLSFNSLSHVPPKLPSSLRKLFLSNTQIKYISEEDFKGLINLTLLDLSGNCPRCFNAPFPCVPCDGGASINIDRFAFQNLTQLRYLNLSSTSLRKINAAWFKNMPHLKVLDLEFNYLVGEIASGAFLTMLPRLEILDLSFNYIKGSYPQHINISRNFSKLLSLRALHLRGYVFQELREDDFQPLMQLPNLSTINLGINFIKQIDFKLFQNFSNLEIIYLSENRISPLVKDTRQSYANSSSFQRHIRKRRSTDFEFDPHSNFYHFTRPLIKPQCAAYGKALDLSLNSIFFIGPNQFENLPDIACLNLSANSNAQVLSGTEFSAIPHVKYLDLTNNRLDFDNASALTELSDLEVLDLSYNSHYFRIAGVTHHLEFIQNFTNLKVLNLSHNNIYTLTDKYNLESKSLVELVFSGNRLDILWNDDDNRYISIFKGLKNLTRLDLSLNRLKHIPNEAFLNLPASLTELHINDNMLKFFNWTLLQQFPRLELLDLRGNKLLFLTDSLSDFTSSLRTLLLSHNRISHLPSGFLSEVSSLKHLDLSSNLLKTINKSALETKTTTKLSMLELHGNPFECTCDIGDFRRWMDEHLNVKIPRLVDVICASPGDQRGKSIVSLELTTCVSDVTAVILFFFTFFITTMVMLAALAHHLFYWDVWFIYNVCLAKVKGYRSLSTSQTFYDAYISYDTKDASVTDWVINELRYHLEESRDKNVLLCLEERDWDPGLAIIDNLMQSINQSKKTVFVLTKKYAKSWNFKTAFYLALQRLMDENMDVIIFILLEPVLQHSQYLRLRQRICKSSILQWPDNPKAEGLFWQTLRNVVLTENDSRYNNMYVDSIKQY
Experimental: as §1, §2

Compound: COc1cc(-c2nc3c(C)cc(C4CCN([C@H]5C[C@@H]6CN(C7CCC7)C[C@@H]6C5)CC4)nc3n2C)cn2ncnc12 [Example 42, 5-(1-((3aR,5s,6aS)-2-cyclobutyloctahydrocyclopenta[c]pyrrol-5-yl)piperidin-4-yl)-2-(8-methoxy-[1,2,4]triazolo[1,5-a]pyridin-6-yl)-3,7-dimethyl-3H-imidazo[4,5-b]pyridine]
- IC50 (human TLR9): 84 nM
- IC50 (human TLR7): 17000 nM
- IC50 (human TLR8): > 50000 nM

Compound: COc1ccc(-c2nc3ncc(C4CCN(C5CCN(C6CC6)CC5)CC4)cc3[nH]2)cc1OC [Example 13, 6-(1′-cyclopropyl-[1,4′-bipiperidin]-4-yl)-2-(3,4-dimethoxyphenyl)-1H-imidazo[4,5-b]pyridine]
- IC50 (human TLR9): 1200 nM
- IC50 (human TLR7): > 25000 nM
- IC50 (human TLR8): > 25000 nM

Compound: Cc1cc(C2CCN(C3CC4CCC(C3)N4C(C)C)CC2)nc2c1nc(-c1ccc(S(C)(=O)=O)cc1)n2C (single isomer, unassigned) [Example 27, 5-(1-(8-isopropyl-8-azabicyclo[3.2.1]octan-3-yl)piperidin-4-yl)-3,7-dimethyl-2-(4-(methylsulfonyl)phenyl)-3H-imidazo[4,5-b]pyridine]
- IC50 (human TLR9): 300 nM
- IC50 (human TLR7): 3700 nM
- IC50 (human TLR8): 24000 nM

Compound: CC(C)N1CCN(c2ccc(-c3ccc4nc(-c5ccc(S(C)(=O)=O)cc5)n(C)c4n3)cc2)CC1 [Example 53, 5-(4-(4-isopropylpiperazin-1-yl)phenyl)-3-methyl-2-(4-(methylsulfonyl)phenyl)-3H-imidazo[4,5-b]pyridine]
- IC50 (human TLR9): 930 nM
- IC50 (human TLR7): > 50000 nM
- IC50 (human TLR8): > 50000 nM

Compound: Cc1cc(C2CCN(C3CCN(C(C)C)CC3)CC2)nc2c1nc(-c1ccc(S(C)(=O)=O)cc1)n2C [Example 20, 5-(1′-isopropyl-[1,4′-bipiperidin]-4-yl)-3,7-dimethyl-2-(4-(methylsulfonyl)phenyl)-3H-imidazo[4,5-b]pyridine]
- IC50 (human TLR9): 25 nM
- IC50 (human TLR7): 1400 nM
- IC50 (human TLR8): > 50000 nM

Compound: CC(C)N1CCN(c2ccc(-c3ccc4nc(-c5ccc(S(C)(=O)=O)cc5)n(C5CC5)c4n3)cc2)CC1 [Example 54, 3-cyclopropyl-5-(4-(4-isopropylpiperazin-1-yl)phenyl)-2-(4-(methylsulfonyl)phenyl)-3H-imidazo[4,5-b]pyridine]
- IC50 (human TLR9): 760 nM
- IC50 (human TLR7): > 50000 nM
- IC50 (human TLR8): > 50000 nM

Compound: COc1ccc(-c2nc3c(C)cc(C4CCN([C@H]5C[C@@H]6CN(C(C)C)C[C@@H]6C5)CC4)nc3n2C)cc1OC [Example 36, 2-(3,4-dimethoxyphenyl)-5-(1-((3aR,5s,6aS)-2-isopropyloctahydrocyclopenta[c]pyrrol-5-yl)piperidin-4-yl)-3,7-dimethyl-3H-imidazo[4,5-b]pyridine]
- IC50 (human TLR9): 140 nM
- IC50 (human TLR7): 1000 nM
- IC50 (human TLR8): > 50000 nM

Compound: CC(C)N1CCN(c2ccc(-c3cnc4nc(-c5ccc(S(C)(=O)=O)cc5)n(C)c4c3)cc2)CC1 [Example 49, 6-(4-(4-isopropylpiperazin-1-yl)phenyl)-1-methyl-2-(4-(methylsulfonyl)phenyl)-1H-imidazo[4,5-b]pyridine]
- IC50 (human TLR9): 350 nM
- IC50 (human TLR7): 4200 nM
- IC50 (human TLR8): 2700 nM

Compound: Cc1cc(C2CCN(C3CC4CCC(C3)N4C(C)C)CC2)nc2c1nc(-c1ccc(S(C)(=O)=O)cc1)n2C (single isomer, unassigned) [Example 26, 5-(1-(8-isopropyl-8-azabicyclo[3.2.1]octan-3-yl)piperidin-4-yl)-3,7-dimethyl-2-(4-(methylsulfonyl)phenyl)-3H-imidazo[4,5-b]pyridine]
- IC50 (human TLR9): 58 nM
- IC50 (human TLR7): 10000 nM
- IC50 (human TLR8): > 50000 nM

Compound: COc1ccc(-c2nc3ncc(-c4ccc(N5CCN(C(C)C)CC5)cc4)cc3n2C)cc1OC [Example 48, 2-(3,4-dimethoxyphenyl)-6-(4-(4-isopropylpiperazin-1-yl)phenyl)-1-methyl-1H-imidazo[4,5-b]pyridine]
- IC50 (human TLR9): 280 nM
- IC50 (human TLR7): 1500 nM
- IC50 (human TLR8): 18000 nM

Compound: Cc1cc(-c2ccc(CN3CC4(C3)CN(C(C)C)C4)cc2)nc2c1nc(-c1ccc(S(C)(=O)=O)cc1)n2C1CC1 [Example 3, 3-cyclopropyl-5-(4-((6-isopropyl-2,6-diazaspiro[3.3]heptan-2-yl)methyl)phenyl)-7-methyl-2-(4-(methylsulfonyl)phenyl)-3H-imidazo[4,5-b]pyridine]
- IC50 (human TLR9): 190 nM
- IC50 (human TLR7): 710 nM
- IC50 (human TLR8): > 50000 nM
